Experimental data from patent EP0678100B1, “SYNTHETIC AMPHIPATHIC PEPTIDES WITH ANTIMICROBIAL ACTIVITY” (PIONEER HI-BRED INTERNATIONAL, INC., priority 1993, dated 1998).
In brackets after ≈: the same amount, converted by molar mass. Where two headings read alike, the source gives them in different places. Residues, ends and D or L forms follow the SMILES beside them.

Key:
[1] = tested on: F. moniliforme
[2] = tested on: E. stewartii
[3] = tested on: F. graminearum; conditions: F. graminearum; minimum inhibitory concentration, achieving a score of 1 or greater
[4] = tested on: E. coli
[5] = tested on: P. syringae

CC[C@H](C)[C@H](NC(=O)CNC(=O)[C@@H](NC(=O)[C@@H](NC(=O)[C@@H](NC(=O)CNC(=O)[C@@H]1CCCN1C(=O)CNC(=O)[C@H](C)NC(=O)[C@H](CC(C)C)NC(=O)[C@H](C)NC(=O)[C@H](CCCNC(=N)N)NC(=O)[C@@H](NC(=O)[C@H](CCCNC(=N)N)NC(=O)[C@@H](NC(=O)[C@H](CCCNC(=N)N)NC(=O)[C@H](CCCNC(=N)N)NC(=O)[C@@H]1CCCN1C(=O)[C@@H](NC(=O)[C@H](Cc1c[nH]cn1)NC(=O)[C@H](CCCNC(=N)N)NC(=O)[C@@H](NC(=O)[C@H](C)NC(=O)[C@H](CCCNC(=N)N)NC(=O)[C@H](Cc1ccc(O)cc1)NC(=O)[C@@H](NC(=O)[C@H](CCCNC(=N)N)NC(=O)[C@H](CCCNC(=N)N)NC(=O)[C@@H](NC(=O)[C@H](C)NC(=O)[C@H](CCCNC(=N)N)NC(=O)[C@@H](N)CCC(N)=O)C(C)C)[C@@H](C)CC)[C@@H](C)CC)[C@@H](C)CC)[C@@H](C)CC)[C@@H](C)CC)C(C)C)[C@@H](C)O)[C@@H](C)CC)C(=O)N[C@@H](C)C(=O)N[C@@H](Cc1c[nH]cn1)C(=O)N[C@@H](C)C(=O)N[C@@H](CCCCN)C(=O)N[C@@H](CO)C(=O)N[C@@H](CCC(N)=O)C(=O)N[C@@H](CC(C)C)C(=O)N[C@@H](Cc1c[nH]c2ccccc12)C(=O)O [Peptide 3] (H-QRAVRRIYRAIRHIPRRIRIRALAGPGVTIGIAHAKSQLW-OH)
MIC [1]: 13
% Inhibition of Growth ([2]; concentration 3.00 µg/ml): 0%
% Inhibition of Growth ([2]; concentration 6.25 µg/ml): 0%
% Inhibition of Growth ([2]; concentration 12.5 µg/ml): 49%
% Inhibition of Growth ([2]; concentration 25 µg/ml): 80%
% Inhibition of Growth ([2]; concentration 50 µg/ml): 100%
MIC [3]: 0.013 ng/mL (≈ 0.00281 nM)
% Inhibition of Growth ([4]; concentration 3.00 µg/ml): 0%
% Inhibition of Growth ([4]; concentration 6.25 µg/ml): 0%
% Inhibition of Growth ([4]; concentration 12.5 µg/ml): 0%
% Inhibition of Growth ([4]; concentration 25 µg/ml): 0%
% Inhibition of Growth ([4]; concentration 50 µg/ml): 0%
% Inhibition of Growth ([5]; concentration 3.00 µg/ml): 0%
% Inhibition of Growth ([5]; concentration 6.25 µg/ml): 11%
% Inhibition of Growth ([5]; concentration 12.5 µg/ml): 30%
% Inhibition of Growth ([5]; concentration 25 µg/ml): 48%
% Inhibition of Growth ([5]; concentration 50 µg/ml): 52%
